Data on 6 compounds can be found in US7923434B2, “Phosphole derivatives complexed with metals, and pharmaceutical uses thereof” (Centre National de la Recherche Scientifique, priority 2004, dated 2011).

Changes are numbered by the printed parent chain.

Series [1] has as its system NCH89 human glioblastoma cell line. Kind of series: BrdU in vitro proliferation test, NCH89. In kind it is cell-based. Particulars: BrdU incorporation. Here is the method:
(§1) Briefly, the tumour cells are cultured and duplicated in 96-well plates in RPMI 1640 medium containing 10% foetal calf serum and antibiotics (cell density: 7×10^3 cells). […] After 48 hours, the reagent 5-bromo-2′-deoxyuridine (BrdU) was added at the final concentration of 10 μM for an incubation period of 19 hours. […] Compound (7) (Au-triphenylphosphine chloride complex, (PPh3)AuCl) and nitrosourea 1,3-bis(2-chloroethyl)-1-nitrosourea (BCNU, carmustine) are positive controls already reported in the literature.
For orientation: Dividing cells build labelled thymidine or BrdU into new DNA.

Series [2] addresses T1, WT hTrxR (Homo sapiens, UniProt Q16881).
T1 sequence (Q16881 151-649 limits assumed): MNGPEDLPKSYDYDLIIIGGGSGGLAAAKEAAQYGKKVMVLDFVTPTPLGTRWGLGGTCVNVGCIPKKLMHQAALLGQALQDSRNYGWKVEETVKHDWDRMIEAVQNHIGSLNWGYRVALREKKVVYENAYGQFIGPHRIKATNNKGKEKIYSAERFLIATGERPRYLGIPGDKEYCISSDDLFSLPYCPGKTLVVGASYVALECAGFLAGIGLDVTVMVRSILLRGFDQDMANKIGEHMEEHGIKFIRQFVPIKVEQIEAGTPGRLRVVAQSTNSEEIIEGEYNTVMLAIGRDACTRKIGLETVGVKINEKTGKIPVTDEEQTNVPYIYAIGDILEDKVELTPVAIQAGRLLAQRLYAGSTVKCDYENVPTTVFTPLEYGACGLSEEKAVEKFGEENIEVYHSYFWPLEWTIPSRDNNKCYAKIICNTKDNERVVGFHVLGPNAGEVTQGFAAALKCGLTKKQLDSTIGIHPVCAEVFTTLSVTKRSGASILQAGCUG
Kind of series: Test for reduction of DTNB by TrxR, wild type. In kind it is biochemical. Particulars: 3 mM DTNB; 10 min pre-incubation with 200 μM NADPH; enzyme 4.8 nM. The text has this:
(§2) The phosphole derivatives containing gold and platinum have been identified as powerful inhibitors of human GR and TrxR (see Table 1). With either the substrate TrxC72S, or DTNB, very low IC50 values at nanomolar level—quasi-stoichiometric reaction—were obtained with wild-type human TrxR. By contrast, the IC50 values with the Sec→Cys mutant were at least 1000 times higher, proving that the selenocysteine residue is the inhibition target of human TrxR. […] A reduction of these enzymes is necessary to complete the inhibition, which proves that the active site comprising the Cys/Cys residues in the GR or Cys/Sec in the TrxR is the inactivation site. The pre-reduction of these enzymes accelerates the inhibition. The reaction between the inhibitor and these enzymes is very rapid and not precisely measurable with standard enzymology techniques. […] This competition would probably not contribute to the irreversible enzymatic inactivation.

The target of series [3] is T1, WT hTrxR. Kind of series: Test for reduction of Trx (hTrxC72S) by TrxR, wild type. In kind it is biochemical. Particulars: 20 μM hTrxC72S; 10 min pre-incubation with 100 μM NADPH; enzyme 24 nM.
Description: as §2

In series [4] the target is T2, hTrxRSec→Cys (Homo sapiens, UniProt Q16881).
T2 sequence (Q16881 with tags, fused parts or gaps isoform Q16881-5 limits assumed): T1 sequence (Q16881 151-649 limits assumed) with U498C
Kind of series: Test for reduction of DTNB by TrxR, mutant hTrxR-Mut. In kind it is biochemical. The following applies: 3 mM DTNB; 10 min pre-incubation with 200 μM NADPH; enzyme 90.6 nM.
Description: as §2

Series [5] addresses T2, hTrxRSec→Cys. Put plainly: Test for reduction of Trx (hTrxC72S) by TrxR, mutant hTrxR-Mut. Format: biochemical. Particulars: 20 μM hTrxC72S; 10 min pre-incubation with 100 μM NADPH; enzyme 1.8 μM.
Description: as §2

Series [6] has as its target T3, human GR (Homo sapiens, UniProt P00390).
T3 sequence (P00390 45-522 limits assumed): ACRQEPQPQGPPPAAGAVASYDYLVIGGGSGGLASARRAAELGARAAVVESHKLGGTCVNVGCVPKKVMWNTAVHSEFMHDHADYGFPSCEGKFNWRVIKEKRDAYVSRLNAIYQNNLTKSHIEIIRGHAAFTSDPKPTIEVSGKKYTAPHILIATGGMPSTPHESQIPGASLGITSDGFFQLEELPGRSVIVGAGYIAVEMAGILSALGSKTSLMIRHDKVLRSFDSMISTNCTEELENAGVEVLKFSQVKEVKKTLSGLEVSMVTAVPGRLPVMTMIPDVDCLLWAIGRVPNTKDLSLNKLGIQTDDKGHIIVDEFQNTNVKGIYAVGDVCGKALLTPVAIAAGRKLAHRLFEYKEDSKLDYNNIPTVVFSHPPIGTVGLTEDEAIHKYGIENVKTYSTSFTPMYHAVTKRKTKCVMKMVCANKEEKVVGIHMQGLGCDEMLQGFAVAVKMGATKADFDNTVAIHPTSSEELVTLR
Kind of series: Test for reduction of GSSG by GR. Format: biochemical. The following applies: 100 μM GSSG; 10 min pre-incubation with 100 μM NADPH.
Description: as §2

Series [7] has as its system NCH37 human glioblastoma cell line. Put plainly: BrdU in vitro proliferation test, NCH37. In kind it is cell-based. The following applies: BrdU incorporation. Here is the method:
as §1

The test system of series [8] is NCH82 human glioblastoma cell line. Kind of series: BrdU in vitro proliferation test, NCH82. In kind it is cell-based. Particulars: BrdU incorporation. The method, then:
as §1

For series [9], the target named is T3, human GR. Kind of series: Binding of (1) to human GR: titration and initial-speed kinetics. Here is the method:
The stoichiometry of binding of (1) to human GR was determined by titration. Based on these experiments, (1) binds very tightly to the binding site of the GSSG of each human GR sub-unit. […] Although numerous hydrophobic inhibitors of the human GR and of the GR of Plasmodium falciparum are bound in the cavity between the two sub-units of the dimer with a stoichiometry of 0.5 per sub-unit, this is not the case for the inhibitor (1). The stoichiometry of 1.25 equivalents of (1) per FAD or per sub-unit of human GR can be explained by the presence of a second molecule of (1) bound less tightly to another position in the human GR, confirming the 3D structure of the complex GR-(1). […] The inactivation mechanism of human GR therefore involves an S—Au(I)—S coordination and the loss of the phosphole ligand; • the second site for the metallo-phosphole (1) is the Cys284 exposed to the solvent, at 23 Å of the active site and located in a hydrophobic cavity. In this case, the sulphur atom of the Cys284 remains bound to the Au-phosphole entity. […]

Series [10] can be described thus: Tolerability in C6 glioma-bearing rats. In kind it is in vivo, rat. The method, then:
After confirmation of the tumour growth by MRI on day 9, the rats carrying tumours were treated by intravenous injection with the compound (1) at a concentration of 25 mg/kg (n=4). The tumour growth was compared to that of the non-treated control animals (n=4). The treatment commenced on day 9 and continued on days 11 and 13. On day 15 after the implantation of the tumour cells, all the rats were sacrificed by decapitation. Under these conditions, a 44% reduction of the tumour growth was observed between days 9 and 15 at a dose of compound (1) of 25 mg/kg of body weight compared with that of the control group (FIG. 1).

Series [11] concerns DNA. Put plainly: Thermal DNA denaturation test. The following applies: tested between 0 and 20 μM. In kind it is binding. The method, then: In addition to its major activity on human disulphide reductases, glutathione reductase and thioredoxin reductase, the binding of complex (1) to DNA was measured in thermal DNA denaturation tests.

Regarding `c1ccc(-p2c(-c3ccccn3)c3c(c2-c2ccccn2)CCCC3)cc1` [Compound 5], in series [1], the IC50 (in general, the concentration at which inhibition is half-maximal) is 6.7 ± 0.3 µM.
With `[Cl][Pt-2]1([Cl])[n+]2ccccc2C2=C3CCCCC3=C(c3cccs3)[P+]21c1ccccc1` (centres unmarked) [Compound 4], the 50% inhibitory concentration (IC50) was found to be 0.001 µM in [2]; 0.008 µM in [3]; 24 µM in series [4]; 2.3 µM in series [5]; 0.4 µM in series [6].
In the case of `O=NN(CCCl)C(=O)NCCCl` [carmustine, 1,3-bis(2-chloroethyl)-1-nitrosourea], the 50% inhibitory concentration (IC50) in [7] turned out to be 300 ± 12 µM; in series [8], 385 ± 25 µM; in series [1], 615 ± 38 µM.
With `[Cl][Au][PH]1(c2ccccc2)C(c2ccccn2)=C2CCCCC2=C1c1ccccn1` [Compound 1], the IC50 was found to be 0.0008 µM in series [2]; 0.007 µM in [3]; 2.5 µM in series [4]; 0.8 µM in series [5]; 0.001 µM in series [6]. Further, in series [9] (kinetics at initial speed with 0.5-2.0 μM GSSG, read-out: disassociation constant Kd=Ki), the Kd – broadly, the equilibrium constant for the complex coming apart – was 0.46 µM. Also, the stoichiometry of binding in series [9] (titration, differences in extinction coefficient at selected wavelengths) is listed as 1.25 equivalents of (1) per FAD or per sub-unit of human GR. In series [10] (25 mg/kg), the “tolerability of the therapy” value is recorded as “well tolerated”. In [10] (25 mg/kg i.v., C6 glioma rats), the death from treatment entry was “no animal died”. Moreover, the “total body weight, treated vs control” value in series [10] (25 mg/kg i.v., C6 glioma rats) was “no significant difference”. Besides, the “binding to DNA: concentration from which active” value in [11] turned out to be 1 µM.
As for `[Cl][Au][PH]1(c2ccccc2)C(c2ccccn2)=C2CCCCC2=C1c1cccs1` [Compound 2], the IC50 in series [2] came out at 0.001 µM; in [3], 0.007 µM; in [4] it was 2.5 µM; in [5], 1.4 µM; in series [6], 0.002 µM.
In series [1], `c1ccc(-p2c(-c3ccccn3)c3c(c2-c2cccs2)CCCC3)cc1` (centres unmarked) [Compound 6] gave a half-inhibitory concentration (IC50) of 8.5 ± 0.5 µM.
